From patent US10435388B2, “Selective inhibitors of clinically important mutants of the EGFR tyrosine kinase” (CS PHARMATECH LIMITED, priority 2016, dated 2019)
Values joined by “and” are separate entries in the source; they are usually repeats but may differ in a detail not shown here. Identical values can stand only once.

Columns and labels:
[1] = test system: NCI-H1975 cells (EGFR L858R/T790 double mutant); assay: H1975 inhibition assay (cell proliferation), Method A; assay type: cell-based; details: cellular proliferation, NCI-H1975 cells, 72 h, CellTiter-Glo (Table 1); read-out: NCI-H1975 IC50 (nM) DM
[2] = target: EGFR_T790M/L858R (Homo sapiens, UniProt P00533, L858R/T790M); assay: Enzyme assay, IC50 for double-mutant EGFR (EGFR_T790M/L858R) (Caliper); assay type: biochemical; details: enzyme phosphorylation assay; read-out: EGFR_L858R/T790 IC50
[3] = target: T1, INSR (Homo sapiens, UniProt P06213); assay: INSR inhibition assay (Caliper EZ Reader); assay type: biochemical; details: enzyme assay
T1 construct: purchased CARNA BIOSCIENCE 08-142

[4] = test system: PC9 cells (EGFR d746-750 single mutant); assay: PC-9 growth inhibition assay (cell proliferation), Method A; assay type: cell-based, human; details: cellular proliferation, PC9 cells, 72 h, CellTiter-Glo (Table 1); read-out: PC9 IC50 (nM) SM
[5] = test system: p-EGFR in H1975 cells (L858R/T790M double mutant EGFR); details: read-out: H1975 IC50; cellular EGFR autophosphorylation, 2 h treatment, ELISA
Protocol: Cellular EGFR Autophosphorylation Assays.
H1975 cells were cryopreserved in liquid nitrogen. […] Remove the vial from liquid nitrogen and thaw rapidly by placing at 37° C. in a water bath with gentle agitation for 1-2 minutes and then decontaminated by wiping with 70% ethanol before opening in a Class II biological safety cabinet. Transfer the vial contents drop-wise into 10 mL of cell culture medium in a sterile 15 mL conical tube. Then centrifuged the tube at 200× g for 5 minutes and aspirate the supernatant. Re-suspend the cell pellet with 1 mL of fresh cell culture medium and transfer it in to the T75 flask containing cell culture medium.
To passage H1975 cells, firstly, the adherent cells were rinsed with Trypsin/EDTA. Then add Trypsin/EDTA (3 mL for a T75 flask) into the flask and swirl to ensure the cells coated with trypsin evenly. Then incubate the flasks at 37° C. until the cells detach. Add equal volume of cell culture medium to stop the reaction. Collect the detached cells and centrifuged at 200× g for 5 minutes followed by re-suspended in fresh culture medium. Then, the cells were transferred into a new T75 flask containing cell culture medium. Cells were sub-cultured three times per week at a ratio of 1:4 in culture medium.
Harvest cells from flask into cell culture medium and the cell numbers counted using Automated Cell Counter (Thermo Fisher Scientific, Countess™). Dilute the cells into 250,000 cells/mL with culture medium and add 40 μL of cell suspension into each well of 384-well cell culture plate as designated. The final concentration was 10,000 cells/well. The plates were covered with lid and placed in 37° C. 5% CO2 incubator overnight for cell attachment.
On the second day, test compounds were dissolved in DMSO at 10 mM. […] The same volume of DMSO was adopted as high control.
Place the plate back to 37° C. 5% CO2 incubator for 2 hours. Replace the medium of each well with ice-cold HBSS. Then remove the HBSS, add 30 μL cell lysis buffer into each well and shake the plates for 30 mins on a plate shaker. Centrifuge for 5 min at 1,000 rpm to remove bubbles and transfer 25 uL of the lysate supernatant for p-EGFR assay by using a commercial ELISA kit (R&D, DYC1095B-5).
For estimation of IC50, the absorption readout are transformed to % relative activity by applying the following equation
[formula] The IC50 was then calculated by fitting in XLFit (IDBS, Guildford, Surrey) to a four parameters logistic curve.

[6] = target: EGFR_d746-750 (Homo sapiens, UniProt P00533, DEL746-750); assay: Enzyme assay, IC50 for single mutant EGFR_d746-750 (Caliper); assay type: biochemical; details: enzyme phosphorylation assay
[7] = test system: LoVo cells (unmutated EGFR wild type); assay: LoVo growth inhibition assay (cell proliferation), Method A; assay type: cell-based; details: cellular proliferation, 72 h, CellTiter-Glo (Table 1), read-out: LoVo IC50 (nM) WT
Protocol: Cell Proliferation Assays—Method A
LoVo Growth Inhibition Assay (Cell Proliferation)
The rest of the procedure was carried out in the same manner as described for the H1975 cells.

[8] = test system: p-EGFR in PC9 cells (Exon 19 deletion EGFR); assay: Exon19 deletion EGFR (activating single mutant) PC-9 cellular autophosphorylation assay; assay type: cell-based, human; details: 2 h treatment, ELISA

T1 sequence (P06213 989-1382 limits assumed): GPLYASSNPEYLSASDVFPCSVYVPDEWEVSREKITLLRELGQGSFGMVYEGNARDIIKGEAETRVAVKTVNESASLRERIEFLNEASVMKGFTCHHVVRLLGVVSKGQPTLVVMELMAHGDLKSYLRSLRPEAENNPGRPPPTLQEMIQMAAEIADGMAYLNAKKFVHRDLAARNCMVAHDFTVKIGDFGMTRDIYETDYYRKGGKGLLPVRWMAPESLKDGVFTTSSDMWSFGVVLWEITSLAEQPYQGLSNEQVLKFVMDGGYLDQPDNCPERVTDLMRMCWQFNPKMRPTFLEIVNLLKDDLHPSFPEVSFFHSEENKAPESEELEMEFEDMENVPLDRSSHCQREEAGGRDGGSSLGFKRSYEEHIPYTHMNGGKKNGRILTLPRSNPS
Chain of EGFR_d746-750 (P00533 with tags, fused parts or gaps DEL746-750): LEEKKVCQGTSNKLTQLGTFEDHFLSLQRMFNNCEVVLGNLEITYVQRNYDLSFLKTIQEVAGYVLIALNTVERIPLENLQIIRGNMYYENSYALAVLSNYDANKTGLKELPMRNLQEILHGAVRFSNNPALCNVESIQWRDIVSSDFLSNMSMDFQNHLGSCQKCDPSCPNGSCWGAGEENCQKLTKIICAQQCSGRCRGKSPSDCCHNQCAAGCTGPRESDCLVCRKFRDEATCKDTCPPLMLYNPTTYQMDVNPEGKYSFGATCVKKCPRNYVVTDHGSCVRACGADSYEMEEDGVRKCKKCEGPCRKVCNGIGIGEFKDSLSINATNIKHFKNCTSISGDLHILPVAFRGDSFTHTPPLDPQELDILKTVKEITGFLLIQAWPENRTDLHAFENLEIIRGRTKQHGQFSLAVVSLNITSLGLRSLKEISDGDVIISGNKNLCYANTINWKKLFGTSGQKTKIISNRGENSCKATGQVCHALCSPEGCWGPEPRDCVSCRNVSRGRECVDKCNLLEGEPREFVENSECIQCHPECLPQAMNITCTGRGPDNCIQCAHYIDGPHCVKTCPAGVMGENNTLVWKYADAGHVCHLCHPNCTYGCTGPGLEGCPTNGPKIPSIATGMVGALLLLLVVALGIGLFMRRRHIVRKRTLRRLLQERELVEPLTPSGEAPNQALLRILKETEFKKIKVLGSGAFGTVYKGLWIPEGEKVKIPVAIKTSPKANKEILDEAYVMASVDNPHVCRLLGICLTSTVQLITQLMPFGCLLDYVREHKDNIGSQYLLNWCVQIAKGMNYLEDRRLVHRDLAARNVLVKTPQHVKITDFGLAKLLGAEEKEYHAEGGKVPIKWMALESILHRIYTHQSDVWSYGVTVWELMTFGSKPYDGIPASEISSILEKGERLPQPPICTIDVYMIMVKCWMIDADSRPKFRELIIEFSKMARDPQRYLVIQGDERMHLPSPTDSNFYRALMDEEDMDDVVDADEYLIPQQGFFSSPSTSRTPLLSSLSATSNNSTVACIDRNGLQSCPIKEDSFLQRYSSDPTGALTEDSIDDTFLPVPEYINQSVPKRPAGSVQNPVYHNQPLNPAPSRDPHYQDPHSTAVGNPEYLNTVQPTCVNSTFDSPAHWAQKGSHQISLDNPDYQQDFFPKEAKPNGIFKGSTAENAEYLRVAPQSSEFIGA
Chain of EGFR_T790M/L858R (P00533 25-1210 T790M/L858R): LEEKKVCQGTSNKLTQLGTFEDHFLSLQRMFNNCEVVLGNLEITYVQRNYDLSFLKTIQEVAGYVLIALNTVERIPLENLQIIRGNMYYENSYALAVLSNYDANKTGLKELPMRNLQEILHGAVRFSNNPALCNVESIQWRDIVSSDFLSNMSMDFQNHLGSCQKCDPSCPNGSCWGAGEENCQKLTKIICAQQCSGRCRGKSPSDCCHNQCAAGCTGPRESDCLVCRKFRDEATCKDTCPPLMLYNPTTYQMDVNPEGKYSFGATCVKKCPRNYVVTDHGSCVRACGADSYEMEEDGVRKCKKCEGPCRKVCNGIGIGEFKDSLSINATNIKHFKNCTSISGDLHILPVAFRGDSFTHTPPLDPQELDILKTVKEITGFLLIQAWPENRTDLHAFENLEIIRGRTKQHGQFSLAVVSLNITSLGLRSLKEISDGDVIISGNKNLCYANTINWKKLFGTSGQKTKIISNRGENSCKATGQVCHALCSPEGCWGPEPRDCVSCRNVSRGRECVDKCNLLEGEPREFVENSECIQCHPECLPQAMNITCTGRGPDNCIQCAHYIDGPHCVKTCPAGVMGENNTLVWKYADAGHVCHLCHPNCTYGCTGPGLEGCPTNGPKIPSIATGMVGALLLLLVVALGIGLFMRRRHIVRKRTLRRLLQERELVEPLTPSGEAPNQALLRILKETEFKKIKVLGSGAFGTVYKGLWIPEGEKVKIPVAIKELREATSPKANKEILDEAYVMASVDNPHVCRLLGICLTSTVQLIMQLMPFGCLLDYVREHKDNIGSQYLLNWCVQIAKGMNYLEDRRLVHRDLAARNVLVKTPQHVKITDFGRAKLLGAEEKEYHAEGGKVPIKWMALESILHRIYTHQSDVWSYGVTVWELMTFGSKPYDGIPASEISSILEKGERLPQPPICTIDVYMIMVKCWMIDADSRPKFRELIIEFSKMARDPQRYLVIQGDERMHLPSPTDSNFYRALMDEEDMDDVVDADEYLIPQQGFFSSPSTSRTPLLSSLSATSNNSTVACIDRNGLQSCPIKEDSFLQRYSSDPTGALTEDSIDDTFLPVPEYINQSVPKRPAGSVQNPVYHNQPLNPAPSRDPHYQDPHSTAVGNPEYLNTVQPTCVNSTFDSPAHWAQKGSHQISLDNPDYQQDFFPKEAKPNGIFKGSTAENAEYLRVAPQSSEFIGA

IC50 [1]: 2.2 nM | IC50 [2]: 1.5 nM | IC50 [3]: 49.5 nM and 72.2 nM | IC50 [4]: 3.4 nM | IC50 [5]: 1.84 nM and 3.58 nM | IC50 [6]: 1.1 nM | IC50 [7]: 3250 nM | IC50 [8]: 2.91 nM and 2.4 nM
SMILES: C=CC(=O)Nc1cc(Nc2nccc(-c3c[nH]c4ccccc34)n2)c(OC)cc1N(C)CCN(C)C [AZD-5104]
